Measurements taken from patent US20210346357A1 (priority 2020, published 2021).
“And” between values parts separate entries of the source, which are not always exact repeats. Equal entries are not always repeated.

Test system: Symptomatic Acute Lung Injury Associated with COVID-19
Experiment: Phase 2 study Part 1, inhaled compound 1 in hospitalized COVID-19 patients
Conditions: for # Subjects Respiratory Failure-Free / # Subjects Alive: number of subjects; for IFN-γ, within-group percent difference in geometric mean from baseline / IL-6, within-group percent difference in geometric mean from baseline / IL-8, within-group percent difference in geometric mean from baseline / IL-10, within-group percent difference in geometric mean from baseline / IP-10, within-group percent difference in geometric mean from baseline / MCP-1, within-group percent difference in geometric mean from baseline / MDC, within-group percent difference in geometric mean from baseline / RAGE, within-group percent difference in geometric mean from baseline / TARC, within-group percent difference in geometric mean from baseline / hsCRP, within-group percent difference in geometric mean from baseline: matched D1 and D7 samples; for Time to Hospital Discharge (Days) Mean ± SD: still hospitalized or died = 28 days; for # Subjects Alive, percent / Died (All-Cause Mortality), number / # Subjects Alive: through Day 28
[1] = COVID-19 patients, 3 mg, Day 21
[2] = COVID-19 patients, 3 mg, Day 28
[3] = COVID-19 patients, 10 mg, Day 7
[4] = COVID-19 patients, 10 mg, Day 14
[5] = COVID-19 patients, 10 mg, Day 21
[6] = COVID-19 patients, 10 mg, Day 28
[7] = mostly in the 3 mg and 10 mg doses

In the case of `CCc1cc(O)ccc1-c1ccc2c(-c3nc4c([nH]3)CN(C(C)C)[C@H](C(=O)N3CC(N(C)C)C3)C4)n[nH]c2c1` [Compound 1, (S)-(3-(dimethylamino)azetidin-1-yl)(2-(6-(2-ethyl-4-hydroxyphenyl)-1H-indazol-3-yl)-5-isopropyl-4,5,6,7-tetrahydro-3H-imidazo[4,5-c]pyridin-6-yl)methanone], the “Hospital Discharge, number” value [1] is reported as 6, the “Hospital Discharge, percent” value [1] is reported as 86% and 85.7% and the “# Subjects Respiratory Failure-Free, percent” value [2] is reported as 85.7%. For the same compound, the “Hospital Discharge, number” value [2] was 7, the “Hospital Discharge, percent” value [2] was 100% and the “Proportion of Subjects Alive and Respiratory Failure-free” value [2] was 85.7%. For the same compound, the “Proportion of Subjects Alive and Respiratory Failure-free, number” value [2] was 6, the “# Subjects Respiratory Failure-Free” value [2] was 6 and the “IFN-γ, within-group percent difference in geometric mean from baseline” value (COVID-19 patients, 3 mg) was −90.42%. For the same compound, the “IL-6, within-group percent difference in geometric mean from baseline” value (COVID-19 patients, 3 mg) was −80.24%, the “IL-8, within-group percent difference in geometric mean from baseline” value (COVID-19 patients, 3 mg) was −48.02% and the “IL-10, within-group percent difference in geometric mean from baseline” value (COVID-19 patients, 3 mg) was −70.10%. The “IP-10, within-group percent difference in geometric mean from baseline” value (COVID-19 patients, 3 mg) was −81.44%, the “MCP-1, within-group percent difference in geometric mean from baseline” value (COVID-19 patients, 3 mg) was −54.15% and the “MDC, within-group percent difference in geometric mean from baseline” value (COVID-19 patients, 3 mg) was −23.84%. The “RAGE, within-group percent difference in geometric mean from baseline” value (COVID-19 patients, 3 mg) was −82.95%, the “TARC, within-group percent difference in geometric mean from baseline” value (COVID-19 patients, 3 mg) was −34.57% and the “hsCRP, within-group percent difference in geometric mean from baseline” value (COVID-19 patients, 3 mg) was −74.95%. The “Time to Hospital Discharge (Days) Mean ± SD” value (COVID-19 patients, 3 mg) was 15.29 ± 6.651 days, the “# Subjects Alive, percent” value (COVID-19 patients, 3 mg) was 100.0% and the “Died (All-Cause Mortality), number” value (COVID-19 patients, 3 mg) was 0. For the same compound, the “# Subjects Alive” value (COVID-19 patients, 3 mg) was 7, the “Clinical Status at Day 28: 1-Not hospitalized, no limitations on activities, number” value (COVID-19 patients, 10 mg) was 5 and the “Clinical Status at Day 28: 1-Not hospitalized, no limitations on activities, percent” value (COVID-19 patients, 10 mg) was 83.3%. For the same compound, the “Clinical Status at Day 28: 2-Not hospitalized, but with limitations on activities and/or requiring home oxygen, number” value (COVID-19 patients, 10 mg) was 1, the “Clinical Status at Day 28: 2-Not hospitalized, but with limitations on activities and/or requiring home oxygen, percent” value (COVID-19 patients, 10 mg) was 16.7% and the “Clinical Status at Day 28: 3-Hospitalized, not requiring supplemental oxygen, and no longer requiring ongoing medical care, number” value (COVID-19 patients, 10 mg) was 0. For the same compound, the “Clinical Status at Day 28: 4-Hospitalized, not requiring supplemental oxygen, but requiring ongoing medical care, number” value (COVID-19 patients, 10 mg) was 0, the “Clinical Status at Day 28: 5-Hospitalized, requiring supplemental oxygen, number” value (COVID-19 patients, 10 mg) was 0 and the “Clinical Status at Day 28: 6-Hospitalized, on non-invasive ventilation or high-flow oxygen devices, number” value (COVID-19 patients, 10 mg) was 0. The “Clinical Status at Day 28: 7-Hospitalized, on invasive mechanical ventilation or extracorporeal membrane oxygenation, number” value (COVID-19 patients, 10 mg) was 0, the “Clinical Status at Day 28: 8-Death, number” value (COVID-19 patients, 10 mg) was 0 and the “Still in Hospital at Day 28, number” value (COVID-19 patients, 10 mg) was 0. The “Time to Hospital Discharge (Days) Median” value (COVID-19 patients, 10 mg) was 16.50 days, the “Modified Borg Dyspnea Score, Baseline, Mean” value (COVID-19 patients, 10 mg group, baseline value) was 6.00 and the “Modified Borg Dyspnea Score Change from Baseline, Mean” value (“Modified Borg Dyspnea Score Change” below) (COVID-19 patients, 10 mg, Day 2) was −0.33. For the same compound, the “Modified Borg Dyspnea Score Change” value (COVID-19 patients, 10 mg, Day 3) was −1.17, the “Modified Borg Dyspnea Score Change” value (COVID-19 patients, 10 mg, Day 4) was −1.50 and the “Modified Borg Dyspnea Score Change” value (COVID-19 patients, 10 mg, Day 5) was −1.17. The “Modified Borg Dyspnea Score Change” value (COVID-19 patients, 10 mg, Day 6) was −1.33, the “Hospital Discharge, number” value [3] was 0 and the “Modified Borg Dyspnea Score Change” value [3] was −1.67. The “Hospital Discharge, number” value [4] was 2, the “Hospital Discharge, percent” value [4] was 33.3% and the “Hospital Discharge, number” value [5] was 6. The “Hospital Discharge, percent” value [5] was 100%, the “# Subjects Respiratory Failure-Free, percent” value [6] was 100.0% and the “Hospital Discharge, number” value [6] was 6. For the same compound, the “Hospital Discharge, percent” value [6] was 100%, the “Proportion of Subjects Alive and Respiratory Failure-free” value [6] was 100.0% and the “Proportion of Subjects Alive and Respiratory Failure-free, number” value [6] was 6. For the same compound, the “# Subjects Respiratory Failure-Free” value [6] was 6, the “IFN-γ, within-group percent difference in geometric mean from baseline” value (COVID-19 patients, 10 mg) was −78.59% and the “IL-6, within-group percent difference in geometric mean from baseline” value (COVID-19 patients, 10 mg) was −58.84%. The “IL-8, within-group percent difference in geometric mean from baseline” value (COVID-19 patients, 10 mg) was −25.87%, the “IL-10, within-group percent difference in geometric mean from baseline” value (COVID-19 patients, 10 mg) was −40.57% and the “IP-10, within-group percent difference in geometric mean from baseline” value (COVID-19 patients, 10 mg) was −79.32%. The “MCP-1, within-group percent difference in geometric mean from baseline” value (COVID-19 patients, 10 mg) was −21.15%, the “MDC, within-group percent difference in geometric mean from baseline” value (COVID-19 patients, 10 mg) was −6.70% and the “RAGE, within-group percent difference in geometric mean from baseline” value (COVID-19 patients, 10 mg) was −54.44%. The “TARC, within-group percent difference in geometric mean from baseline” value (COVID-19 patients, 10 mg) was −21.21%, the “hsCRP, within-group percent difference in geometric mean from baseline” value (COVID-19 patients, 10 mg) was −52.13% and the “Time to Hospital Discharge (Days) Mean ± SD” value (COVID-19 patients, 10 mg) was 15.17 ± 4.446 days. The “# Subjects Alive, percent” value (COVID-19 patients, 10 mg) was 100.0%, the “Died (All-Cause Mortality), number” value (COVID-19 patients, 10 mg) was 0 and the “# Subjects Alive” value (COVID-19 patients, 10 mg) was 6. For the same compound, the tolerability (COVID-19 patients, single daily dose of 1 mg, 3 mg, and 10 mg for up to 7 days) was “generally well tolerated”, the “% subjects alive/reduced mortality, compared to Placebo” value (all compound 1 groups) was “positive trend” and the “% subjects respiratory-failure free at Day 28, compared to Placebo” value (all compound 1 groups) was “positive trend”. The “clinical improvement, 8-point Clinical Status Scale from Day 1 to Day 28, compared to Placebo” value (all compound 1 groups) was “positive trend”, the “earlier time to hospital discharge, compared to Placebo” value (all compound 1 groups) was “positive trend” and the “improvement in Modified Borg Dyspnea Score in mean change from baseline at Day 7, compared to Placebo” value (all compound 1 groups) was “positive trend”. For the same compound, the “reduction in alveolar epithelial cell injury marker RAGE” value [7] was “positive trend” and the “reduction of inflammation markers including hsCRP, IFN-g, IL-6, IP-10” value [7] was “positive trend”.
